Read-outs that look alike come from different tables or passages of the source.
Assays:
HsClpP [1] = molecular target: T1, HsClpP (Homo sapiens, UniProt Q16740); test: HsClpP enzyme hydrolysis of short peptide substrate AC-WLA-AMC; details: for Regulatory efficacy 1 μM / Regulatory efficacy 10 μM: promoting hydrolysis of short peptide substrate by HsClpP, relative to blank control
Experimental: This study evaluated the regulatory activity of the compounds on HsClpP by examining the hydrolysis effects of HsClpP protein on the AC-WLA-AMC substrate . […] The small molecules and the HsClpP protein solution were added to a flat-bottomed black 96-well plate, with three replicate wells for each group. […] DMSO was used as a negative control instead of small molecules. The multiple of readings at different concentrations against the readings of DMSO group was recorded as an index for evaluation of hydrolysis activity. . . . GraphPad Prism was used to plot the obtained multiple values and calculate the EC50 values.

A549 = test: CCK-8 in vitro anti-tumor proliferation assay; type: cell-based; details: Homo sapiens, read-out: IC50(uM) A549
Experimental: (§1) Example 3: In vitro anti-tumor proliferation assay of the compounds. The purpose of this experiment was to use CCK-8 to detect the in vitro inhibitory activity of the compounds of the present invention against the proliferation of tumor cells. The main reagents, such as RPMI-1640, DMEM high-glucose culture medium, fetal bovine serum, trypsin, etc., were purchased from Gibco BRL. CCK8 and DMSO were products of Sigma. For in vitro experiment, the test compounds were prepared as 10 mM stock solutions in DMSO and stored at −20° C. in the refrigerator in the dark for later use, then diluted to desired concentration with complete culture medium before use. The human lung cancer cells, colon cancer cells, breast cancer cells, glioblastoma cells, human myelomonocytic leukemia cells, and human Burkitt's lymphoma cells used in this experiment were all purchased from the American ATCC company and preserved in laboratory of the inventors. All the above cell lines were cultured in RPMI-1640 complete medium or DMEM complete medium containing 10% fetal bovine serum, 100 U/mL penicillin, and 100 μg/mL streptomycin under 5% carbon dioxide, 37° C. conditions. […] The previous culture medium was discarded, fresh culture medium was added to resuspend the cells, and then the cells were counted. According to the growth rate of different cells, the cell seeding concentration was determined, generally being 3000-5000 cells/well. After determining the seeding concentration, the cell suspension was diluted to desired concentrations with fresh culture medium, and then added to a 96-well plate with 100 μL per well, and 200 μL of PBS was added to the edge wells to prevent evaporation of the culture medium. On the second day, drug treatment was performed. First, the compounds were diluted into a series of gradients with culture medium, and then the drug solution was added to the 96-well plate, with 3 parallel wells for each gradient. Each plate set a blank control group, and ONC201 was used as the positive control group.

Raji = test: CCK-8 in vitro anti-tumor proliferation assay; type: cell-based; details: Homo sapiens, read-out: IC50(uM) Raji
Experimental: as §1

DLD1 = test: CCK-8 in vitro anti-tumor proliferation assay; type: cell-based; details: Homo sapiens, DLD-1, 72 hours
Experimental: as §1

SW620 = test: CCK-8 in vitro anti-tumor proliferation assay; type: cell-based; details: Homo sapiens, SW-620, 72 hours
Experimental: as §1

MV-4-11 = test: CCK-8 in vitro anti-tumor proliferation assay; type: cell-based; details: Homo sapiens, read-out: IC50(uM) MV-4-11
Experimental: as §1

A172 = test: CCK-8 in vitro anti-tumor proliferation assay; type: cell-based; details: Homo sapiens, A 172; Table 3; 72 hours
Experimental: as §1

HCT116 = test: CCK-8 in vitro anti-tumor proliferation assay; type: cell-based; details: Homo sapiens, HCT-116, 72 hours
Experimental: as §1

[2] = test system: human normal embryonic kidney cells (HEK293); test: In vitro cytotoxicity assay, CCK-8; details: up to 50μM; FIG. 13
Experimental: (§2) CCK8 and DMSO were products of Sigma. For in vitro experiment, the test compounds were prepared as 10 mM stock solutions in DMSO and stored at −20° C. in the refrigerator in the dark for later use, then diluted to desired concentration with complete culture medium before use. […] The previous culture medium was discarded, fresh culture medium was added to resuspend the cells, and then the cells were counted. According to the growth rate of different cells, the cell seeding concentration was determined, generally being 3000-5000 cells/well. After determining the seeding concentration, the cell suspension was diluted to desired concentrations with fresh culture medium, and then added to a 96-well plate with 100 μL per well, and 200 μL of PBS was added to the edge wells to prevent evaporation of the culture medium. On the second day, drug treatment was performed.

[3] = test system: rat myocardial cells (H9C2); test: In vitro cytotoxicity assay, CCK-8; details: FIG. 13
Experimental: as §2

HCT115 = test: CCK-8 in vitro anti-tumor proliferation assay; type: cell-based; details: Homo sapiens; Table 4; 72 hours
Experimental: as §1

HT29 = test: CCK-8 in vitro anti-tumor proliferation assay; type: cell-based; details: Homo sapiens, HT-29; Table 4; 72 hours
Experimental: as §1

SW480 = test: CCK-8 in vitro anti-tumor proliferation assay; type: cell-based; details: Homo sapiens, Table 4, 72 hours
Experimental: as §1

HsClpP [4] = molecular target: T1, HsClpP; test: Isothermal Titration calorimetry (ITC); type: binding; details: FIG. 3
Experimental: Isothermal Titration calorimetry experiments can measure the binding affinity between small molecules and proteins. Binding affinity is generally measured and reported through the equilibrium dissociation constant (Kd), where the smaller the Kd value, the higher the binding affinity of the ligand for its target. In the experiment, the loading-samples and proteins were placed in a degassing apparatus at 30° C., with a vacuum degree of 400 mmHg or higher, and degassed for 10 minutes. A 50 mL PBS buffer was prepared, and the sample cell and syringe were rinsed. After rinsing, the liquid in the sample cell was completely removed, and the degassed protein and small molecules were taken out. The sample cell was thoroughly washed with protein, and the syringe was rinsed with the small molecule solution 3-5 times. After washing, 250 μL of protein (0.5 mM) was extracted using the syringe, avoiding the formation of bubbles. Subsequently, 200 μL was injected into the sample cell. 50 μL of the small molecule solution (0.1 mM) was extracted using an injector, again avoiding the formation of bubbles. The titration syringe was loaded onto the instrument, and titration commenced after the instrument was balanced.

SDHB and ATF4 = test: Levels of SDHB and ATF4 in HCT116 cells; details: dose-dependently; FIG. 7
HCT116 cells [5] = test: Apoptosis, Annexin V/PI staining; details: 1.25 μM; FIG. 10
HCT116 cells [6] = test: Wound-healing cell migration assay; type: cell-based, human; details: 24 hours; compared to the control group and the ONC201 group; FIG. 12
Excerpt: Example 12: In vitro Antitumor Cell Migration Assay of Preferred Compound. Studies have shown that increased expression of HsClpP is crucial for the proliferation and migration of certain cancer cell lines, while functional disruption of HsClpP in cancer cells can inhibit cell migration.
Wound-Healingcan be used to detect the invasive ability of adherent tumor cells. By observing the healing ability of tumor cells towards scratches under different conditions, the impact of the compound on the ability of tumor cell migration can be reflected.

[7] = test system: HCT116 CRC xenograft tumors; test: HCT116 xenograft nude mouse model; details: 100 mg/kg oral, twice a week, six doses
Excerpt: (A) Observation of tumor size in mice after treatment; (B) Photographs of excised tumor tissue after treatment; (C) Relative change in mouse body weight during treatment; (D) Relative volume change of tumors during treatment. Measurements were taken every other day; N=6 animals per group.

[8] = Table 3, read-out: IC50(uM) DLD1
[9] = Table 3, read-out: IC50(uM) SW620
[10] = Table 5, HCT116, read-out: IC50
[11] = Table 4, read-out: IC50 ( M) DLD1
[12] = Table 4, read-out: IC50 ( M) SW620
[13] = Table 4, read-out: IC50 ( M) HCT116

T1 sequence (Q16740 57-277): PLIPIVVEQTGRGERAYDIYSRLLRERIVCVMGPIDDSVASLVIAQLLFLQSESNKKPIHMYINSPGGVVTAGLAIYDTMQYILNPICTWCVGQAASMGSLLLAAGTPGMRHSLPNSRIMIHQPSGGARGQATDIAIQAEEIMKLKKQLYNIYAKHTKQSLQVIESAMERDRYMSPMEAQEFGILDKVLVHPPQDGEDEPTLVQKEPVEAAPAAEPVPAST

Row | Structure (SMILES) | Regulatory efficacy 1 μM (HsClpP [1]) | Regulatory efficacy 10 μM (HsClpP [1]) | IC50 (A549; A549, Table 3, 72 hours) | IC50 (Raji; Table 3, 72 hours) | IC50 (DLD1; [8]) | IC50 (SW620; [9]) | IC50 (MV-4-11; MV4-11, Table 3, 72 hours) | IC50 (A172) | IC50 (HCT116; [10]) | IC50 (HCT115) | IC50 (DLD1; [11]) | IC50 (HT29) | IC50 (SW620; [12]) | IC50 (SW480) | IC50 (HCT116; [13]) | further results
1 | O=c1nc2n(c3c1CN(Cc1ccccc1)CC3)CCN2Cc1ccc(C(F)(F)F)cc1 [Compound 18, 7-benzyl-3-(4-trifluoromethylbenzyl)-2,3,6,7,8,9-hexahydroimidazo[1,2-a]pyrido[3,4-e]pyrimidin-5(1H)-one] | + + | + + | 0.2 µM | 0.1 µM | 0.15 µM | 0.5 µM | 0.05 µM | 0.2 µM | 3e-07 M | – | – | – | – | – | – | EC50 (HsClpP [1]): 300 nM
2 | Cc1ccccc1CN1CCn2c1nc(=O)c1c2CCN(Cc2ccccc2)C1 [Compound 1, 7-benzyl-3-(2-methylbenzyl)-2,3,6,7,8,9-hexahydroimidazo[1,2-a]pyrido[3,4-e]pyrimidin-5(1H)-one] | + + | + + | 2 µM | 1 µM | 0.2 µM | 0.6 µM | 0.8 µM | 0.5 µM | 4e-07 M | 1300 nM | 0.5 µM | 5300 nM | 0.6 µM | 1100 nM | 4e-07 M | EC50 (HsClpP [1]; excitatory activity on HsClpP): 300 nM; cytotoxicity on HEK293 cells [2]: no significant cytotoxicity; inhibitory activity on H9C2 cells [3]: no significant inhibitory activity; ITC thermodynamics of titration with HsClpP (AH, AS) (HsClpP [4]): AH<0, AS<0; Kd, affinity for HsClpP (HsClpP [4]; compared to ONC201): much higher affinity for HsClpP compared to ONC201
3 | O=c1nc2n(c3c1CN(Cc1ccccc1)CC3)CCN2Cc1ccc(F)cc1 [Compound 15, 7-benzyl-3-(4-fluorobenzyl)-2,3,6,7,8,9-hexahydroimidazo[1,2-a]pyrido[3,4-e]pyrimidin-5(1H)-one] | + + | + + | – | – | – | – | – | – | 8e-08 M | 200 nM | 0.09 µM | 400 nM | 0.19 µM | 170 nM | 8e-08 M | EC50 (HsClpP [1]): 100 nM
4 | Cc1ccccc1CN1C(=O)C2=C(CCN(Cc3ccccc3)C2)N2CCN=C12 [ONC201, reference compound] | – | – | – | – | – | – | – | – | – | – | – | – | – | – | – | ATF4 level (SDHB and ATF4): ATF4 accumulation; SDHB level (SDHB and ATF4): reduction in SDHB level; cytotoxicity on HEK293 cells [2]: no significant cytotoxicity; inhibitory activity on H9C2 cells [3]: no significant inhibitory activity; apoptotic rate (HCT116 cells [5]): < 4.09%; IC50 (A549; A549, 72 h): 10 µM; IC50 (Raji; 72 h): 2.5 µM; IC50 (MV-4-11; MV4-11, 72 h): 5 µM
5 | O=c1nc2n(c3c1CN(Cc1ccccc1)CC3)CCN2Cc1ccc(Cl)cc1 [Compound 16, 7-benzyl-3-(4-chlorobenzyl)-2,3,6,7,8,9-hexahydroimidazo[1,2-a]pyrido[3,4-e]pyrimidin-5(1H)-one] | + + | + + | – | – | – | – | – | – | 8e-08 M | 250 nM | 0.1 µM | 70 nM | 0.17 µM | 100 nM | 8e-08 M | –
6 | Cc1ccccc1CN1C(=O)C2=C(CCN(Cc3ccccc3)C2)N2CCN=C12 [ONC201·2HCl] | – | – | – | – | – | – | – | – | – | – | – | – | – | – | – | TGI (tumor growth inhibition) [7]: 57%

Continued, in another order:

Row | Regulatory efficacy 1 μM (HsClpP [1]) | Regulatory efficacy 10 μM (HsClpP [1]) | IC50 (A549; A549, Table 3, 72 hours) | IC50 (Raji; Table 3, 72 hours) | IC50 (DLD1; [8]) | IC50 (SW620; [9]) | IC50 (MV-4-11; MV4-11, Table 3, 72 hours) | IC50 (A172) | IC50 (HCT116; [10]) | IC50 (HCT115) | IC50 (DLD1; [11]) | IC50 (HT29) | IC50 (SW620; [12]) | IC50 (SW480) | IC50 (HCT116; [13]) | Structure (SMILES) | further results
7 | + + | + + | – | – | – | – | – | – | – | – | – | – | – | – | – | O=c1nc2n(c3c1CN(Cc1ccccc1)CC3)CCN2Cc1ccc(F)c(Br)c1 [Compound 21, 7-benzyl-3-(3-bromo-4-fluorobenzyl)-2,3,6,7,8,9-hexahydroimidazo[1,2-a]pyrido[3,4-e]pyrimidin-5 (1H)-one] | ATF4 level (SDHB and ATF4): ATF4 accumulation; SDHB level (SDHB and ATF4): reduction in SDHB level; migration ability of HCT116 cells (HCT116 cells [6]): significantly inhibited; ITC thermodynamics of titration with HsClpP (AH, AS) (HsClpP [4]): AH<0, AS<0
8 | + + | + + | 0.4 µM | 0.1 µM | 0.2 µM | 0.15 µM | 0.05 µM | 0.15 µM | 1e-07 M | 120 nM | 0.09 µM | 80 nM | 0.09 µM | 120 nM | 9e-08 M | O=c1nc2n(c3c1CN(Cc1ccccc1)CC3)CCN2Cc1ccc(F)cc1F [Compound 19, 7-benzyl-3-(2,4-difluorobenzyl)-2,3,6,7,8,9-hexahydroimidazo[1,2-a]pyrido[3,4-e]pyrimidin-5(1H)-one] | –
9 | + + | + + | 0.5 µM | 0.1 µM | 0.5 µM | 0.14 µM | 0.025 µM | 0.1 µM | 1e-07 M | 200 nM | 0.15 µM | 50 nM | 0.15 µM | 120 nM | 1e-07 M | O=c1nc2n(c3c1CN(Cc1ccccc1)CC3)CCN2Cc1ccc(F)c(F)c1 [Compound 20, 7-benzyl-3-(3,4-difluorobenzyl)-2,3,6,7,8,9-hexahydroimidazo[1,2-a]pyrido[3,4-e]pyrimidin-5(1H)-one] | –

From patent US20240287071A1, “CLASS OF IMIDAZOLIDINOPYRIMIDONE COMPOUNDS AND USE THEREOF IN TREATMENT OF HSCLPP-MEDIATED DISEASES” (SICHUAN UNIVERSITY, priority 2021, published 2024)
